Legend:
[1] = test system: photoaged females; assay: Adverse experiences and discontinuations in the clinical study
Text: A single-site, double-blind controlled comparative study enrolled 45 photoaged females ages 35-65, Fitzpatrick skin types I-IV, with moderate wrinkling. Subjects who used facial retinoids within 3 months of screening, and/or facial alpha-hydroxy acids within 1 month were excluded. Subjects were randomized 2:1 into the following groups:
The 0.25% retinal serum was used twice weekly for week 1, then every other night for week 2, then every night for weeks 3 and 4. The Test Moisturizer (Lipid Replenishing Cream, TOPIX Pharmaceuticals, Inc, Amityville, NY) was placed on top of the retinal serum at each nightly application and every morning.
Cell 2: 15 subjects applied 0.025% tretinoin cream for 4 weeks. The 0.025% tretinoin cream was used twice weekly for the week 1, then every other night for week 2, then every night for weeks 3 and 4. Test Moisturizing cream (CeraVe Moisturizing Cream, L'Oreal, NY) was placed on top of the tretinoin cream (Ortho Dermatologies, NJ) at each application and every morning.

[2] = test system: photoaged females; parameters: species or system human; settings: in vivo
Text: Clinical photography was captured at each office visit using visible light of the central, right, and left face with a VISIA CR43 camera system (Canfield Scientific, NJ). Noninvasive assessments for barrier function in the form of transepidermal water loss (TEWL) measurements were taken from the left face using Evaporimeter, Cyberderm, Broomall, PA
TEWL (Evaporimeter, Cyberderm, Broomall, PA) measurements were taken at baseline, week 8, and week 12. […] TEWL increase was 16% lower in the retinol group as compared to the tretinoin group.

[3] = test system: photoaged females; assay: Subject overall clinical improvement from baseline, 5-point scale; format: in vivo, human; settings: after 12 weeks; scale 1=much improved to 5=worse
Text: (§1) The dermatologist-investigator and subjects assessed the following facial efficacy parameters: overall severity of photodamage, dryness, lack of tactile smoothness, lack of visual smoothness, lack of softness, lack of luminosity, lack of radiance, lack of firmness, poor skin texture, fine facial wrinkles, crow's feet, dyschromia, and crepey cheek skin texture. All assessments were graded on a 5-point ordinal scale (0=none, 1=minimal, 2=mild, 3=moderate, 4=severe). […] The investigator and subjects referred to baseline images (front, right and left side images) of the subjects in completing this evaluation.

[4] = test system: photoaged females; assay: Subject efficacy: self-assessed photodamage parameters, 5-point ordinal scale; format: in vivo, human
Text: as §1
(§2) Along with descriptive statistics (means, standard deviations, and percentages), investigator ordinal nonparametric data was analyzed using the Wilcoxon signed rank test and sign test for paired comparison at different time points within and between groups. Change was considered significant at a p-value of less than or equal to 0.05.
Subjects assessed their skin appearance across various photodamage parameters using a 5-pointordinal scale (0=none, 1=minimal, 2=mild, 3=moderate, 4=severe) at baseline, week 4, week 8, and week 12.

[5] = test system: photoaged females; assay: Investigator efficacy: facial skin appearance parameters graded on 5-point ordinal scale; format: in vivo, human; settings: longitudinal intragroup
Text: as §1, §2
The investigator graded facial skin appearance parameters using a 5-point ordinal scale (0=none, 1=minimal, 2=mild, 3=moderate, 4=severe) at baseline (visit 1), week 4 (visit 2), and week 8 (visit 3), and week 12 (visit 4).

CC1=C(/C=C/C(C)=C/C=C/C(C)=C/C(=O)O)C(C)(C)CCC1 [tretinoin]
subjects discontinued due to retinoid tolerability issues ([1]; 12-week study, Cell 1 30 subjects, Cell 2 15 subjects): one
serious adverse events ([1]; during the conduct of the study): No serious adverse events
increase in TEWL ([2]; female, human, 12 weeks): 104%
barrier damage (TEWL), intragroup [2]: induced barrier damage
subject overall clinical improvement from baseline, on average reported [3]: much-improved
subject assessed improvement, intragroup longitudinal ([4]; all time points): experienced improvement
softness, subject ([4]; week 8, intragroup, retinol serum P<0.001): not seen until week 8
most parameters, subject ([4]; week 12, intragroup): statistical significance
luminosity, investigator ([5]; week 4): statistically significant improvement
radiance, investigator ([5]; week 4): statistically significant improvement
softness, investigator ([5]; week 4): statistically significant improvement
tactile smoothness, investigator ([5]; week 4): statistically significant improvement
visual smoothness, investigator ([5]; week 4, retinol P=0.031): no significance
firmness, investigator ([5]; week 8): statistical significance
luminosity, investigator ([5]; week 8): statistical significance
overall photoaging appearance, investigator ([5]; week 8): statistical significance
radiance, investigator ([5]; week 8): statistical significance
skin texture, investigator ([5]; week 8): statistical significance
softness, investigator ([5]; week 8): statistical significance
tactile smoothness, investigator ([5]; week 8): statistical significance
visual smoothness, investigator ([5]; week 8): statistical significance
skin dryness, investigator ([5]; week 8, retinol P<0.001): not seen
